# The source made the active and inactive calls.
# Key:
# [1] = A High Throughput Confirmatory Assay used to Identify Novel Compounds that Inhibit Mycobacterium Tuberculosis in the absence of Glycerol.; type: functional
# [2] = microbe, parasite or virus in culture; type: functional; conditions: Mycobacterium tuberculosis
# [3] = THP-1 cell cytotoxicity, dose response, cytotoxicity control for non-replicating M. tuberculosis project (AID 489025); type: functional
# [4] = HepG2 cell cytotoxicity, dose response, cytotoxicity control for non-replicating M. tuberculosis project (AID 489018); type: functional; conditions: Mycobacterium tuberculosis
# cells [5] = type: functional
# [6] = biological target: G-protein coupled receptor 35 (Homo sapiens, UniProt Q9HC97); test: inhibition of zaprinast-stimulated GPR35 beta-arrestin translocation – imaging, U2OS, beta-arrestin-GFP, zaprinast agonist, primary screen (AID 2058); type: functional;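 note: antagonist potency meaning inhibition of agonist-induced arrestin redistribution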
# G-protein coupled receptor 35, sequence (Q9HC97 whole entry): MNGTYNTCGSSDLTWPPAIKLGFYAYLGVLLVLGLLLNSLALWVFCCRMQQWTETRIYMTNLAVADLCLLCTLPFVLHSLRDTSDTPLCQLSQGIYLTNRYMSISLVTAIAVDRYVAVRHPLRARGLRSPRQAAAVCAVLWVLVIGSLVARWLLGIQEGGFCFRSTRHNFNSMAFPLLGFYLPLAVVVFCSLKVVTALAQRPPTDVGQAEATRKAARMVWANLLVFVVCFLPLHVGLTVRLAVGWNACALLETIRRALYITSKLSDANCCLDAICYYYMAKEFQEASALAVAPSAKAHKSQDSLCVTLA
# [7] = Counterscreen for IDE inhibitors: Luminescence-based cell-based high throughput dose response assay to identify compounds that are cytotoxic to HEK cells. [Related pubchem assays: 434962 (Primary screen (IDE inhibitors in singlicate)), 449730 (Counterscreen (Cytotoxicity in triplicate)), 435028 (Confirmation (IDE inhibitors in triplicate)) …; type: functional; conditions: HEK293
# Insulin-degrading enzyme = biological target: T1, Insulin-degrading enzyme (Homo sapiens, UniProt P14735); test: Dose Response: Fluorescence polarization-based cell-based high throughput dose response assay for inhibitors of insulin-degrading enzyme (IDE). [Related pubchem assays: 434962 (Primary screen (IDE inhibitors in singlicate)), 449730 (Counterscreen (Cytotoxicity in triplicate)), 435028 (Confirmation (IDE inhibitors in triplicate)), 434984 (Summary …; type: functional
# T1 sequence (P14735 whole entry): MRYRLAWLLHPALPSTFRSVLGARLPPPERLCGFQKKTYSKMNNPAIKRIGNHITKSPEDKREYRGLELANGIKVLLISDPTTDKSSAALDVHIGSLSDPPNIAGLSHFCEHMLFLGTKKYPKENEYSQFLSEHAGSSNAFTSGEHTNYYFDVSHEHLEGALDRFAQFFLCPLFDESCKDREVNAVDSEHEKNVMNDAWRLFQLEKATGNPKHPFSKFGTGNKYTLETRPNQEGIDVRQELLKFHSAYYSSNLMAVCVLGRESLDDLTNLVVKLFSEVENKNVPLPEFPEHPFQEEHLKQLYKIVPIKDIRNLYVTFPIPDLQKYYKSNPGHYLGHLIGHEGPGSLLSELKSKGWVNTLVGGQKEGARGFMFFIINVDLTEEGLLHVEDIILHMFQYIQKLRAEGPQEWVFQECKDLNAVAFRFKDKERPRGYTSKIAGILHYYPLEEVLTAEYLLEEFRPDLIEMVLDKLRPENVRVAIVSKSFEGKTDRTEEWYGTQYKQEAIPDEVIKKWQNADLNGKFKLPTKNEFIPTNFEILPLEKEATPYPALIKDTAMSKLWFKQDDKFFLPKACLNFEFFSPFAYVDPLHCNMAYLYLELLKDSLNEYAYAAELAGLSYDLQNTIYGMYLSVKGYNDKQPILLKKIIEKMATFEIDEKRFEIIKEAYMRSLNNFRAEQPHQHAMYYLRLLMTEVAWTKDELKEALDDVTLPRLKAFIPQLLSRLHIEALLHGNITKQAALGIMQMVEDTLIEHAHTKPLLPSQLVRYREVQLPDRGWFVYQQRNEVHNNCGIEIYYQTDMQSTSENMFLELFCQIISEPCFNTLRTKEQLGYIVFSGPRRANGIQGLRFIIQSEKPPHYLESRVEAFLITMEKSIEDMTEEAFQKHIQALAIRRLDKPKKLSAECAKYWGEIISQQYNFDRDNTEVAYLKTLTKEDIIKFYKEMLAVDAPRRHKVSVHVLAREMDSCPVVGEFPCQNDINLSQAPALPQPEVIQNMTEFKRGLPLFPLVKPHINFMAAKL
# [8] = mitochondrial function rescue without frataxin homolog – Friedreich's ataxia, plus single-dose screen, dose response (AID 1465); type: functional;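 note: yeast depleted of Yfh1p frataxin homolog grown on glycerol needing respiration; WST-1 tetrazolium dye reduction as measure of cellular dehydrogenase metabolic activity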
# MDA-MB-435 = test: cells; type: functional, cell-based; conditions: Homo sapiens
# cells [9] = type: functional, cell-based; conditions: PPC-1
# [10] = biological target: Beta-2 adrenergic receptor (Homo sapiens, UniProt P07550); test: ADRB2 activation measured by internalization – cell-based, FAP fluorogen, flow cytometry, cherry pick 1, dose response (AID 588763); type: functional
# Beta-2 adrenergic receptor, sequence (P07550 whole entry): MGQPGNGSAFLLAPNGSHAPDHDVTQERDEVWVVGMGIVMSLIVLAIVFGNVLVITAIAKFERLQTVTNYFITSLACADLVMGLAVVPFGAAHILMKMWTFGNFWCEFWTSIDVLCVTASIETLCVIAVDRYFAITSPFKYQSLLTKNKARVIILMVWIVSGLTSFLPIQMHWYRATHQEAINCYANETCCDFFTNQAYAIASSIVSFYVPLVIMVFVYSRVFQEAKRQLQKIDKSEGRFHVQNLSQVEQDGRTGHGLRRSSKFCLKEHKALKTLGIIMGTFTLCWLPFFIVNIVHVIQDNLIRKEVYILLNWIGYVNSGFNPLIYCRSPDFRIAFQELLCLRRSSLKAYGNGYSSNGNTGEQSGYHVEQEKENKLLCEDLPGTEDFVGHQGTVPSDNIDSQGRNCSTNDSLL
# [11] = Luminescence Cell-Based Dose Response HTS to Identify Activators of Luciferase Translation or Activity in H4 […] Cells. [Related pubchem assays: 1829 (Project Summary), 1814 (Primary HTS)]; type: functional
# H4 = test: Luminescence Cell-Based Dose Response HTS to Identify Activators of 5'UTR Stem-Loop Driven Prion Protein mRNA Translation in H4 Neuroglioblastoma Cells. [Related pubchem assays: 1829 (Project Summary), 1814 (Primary HTS)]; type: functional; conditions: Homo sapiens
# J774.A1 = test: Confirmation of image-based Screening Assay for Inhibitors of Phagocytosis. [Related pubchem assays (depositor defined):AID1029, AID1643]; type: functional, cell-based; conditions: Mus musculus
# [12] = HEK-293T viability loss after treatment – luminescence, T-cell screen hits, cytotoxicity control for TCR NF-kB inhibitor project, dose response (AID 489026); type: functional, cell-based;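 note: cells exposed to compound about 14 hours before the viability readout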
# [13] = biological target: Eukaryotic translation initiation factor 4H (Homo sapiens, UniProt Q15056); test: inhibitors of translation initiation factor eIF4H – SAR follow-up (AID 435011); type: functional
# [14] = biological target: Polyadenylate-binding protein 1 (Homo sapiens, UniProt P11940); test: PABP inhibition in translation initiation, SAR follow-up (AID 435018); type: functional
# Polyadenylate-binding protein 1, sequence (P11940 whole entry): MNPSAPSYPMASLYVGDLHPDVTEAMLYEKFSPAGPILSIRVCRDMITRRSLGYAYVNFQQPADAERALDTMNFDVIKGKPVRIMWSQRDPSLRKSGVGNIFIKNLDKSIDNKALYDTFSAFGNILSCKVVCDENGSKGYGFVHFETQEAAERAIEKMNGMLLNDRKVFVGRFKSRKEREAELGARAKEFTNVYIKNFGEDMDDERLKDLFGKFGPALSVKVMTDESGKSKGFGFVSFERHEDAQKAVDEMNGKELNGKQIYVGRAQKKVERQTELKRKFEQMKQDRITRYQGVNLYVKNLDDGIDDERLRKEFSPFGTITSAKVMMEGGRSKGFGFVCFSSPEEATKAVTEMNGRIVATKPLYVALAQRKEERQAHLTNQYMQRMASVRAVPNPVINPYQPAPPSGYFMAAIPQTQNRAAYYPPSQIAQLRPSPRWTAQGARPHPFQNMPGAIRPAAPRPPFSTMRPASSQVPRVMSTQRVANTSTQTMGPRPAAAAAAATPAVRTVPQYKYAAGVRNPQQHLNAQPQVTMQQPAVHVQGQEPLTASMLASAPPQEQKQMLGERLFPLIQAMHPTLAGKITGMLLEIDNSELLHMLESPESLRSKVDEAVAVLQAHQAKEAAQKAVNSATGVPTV
# Mu-type opioid receptor = Mu-type opioid receptor (Homo sapiens, UniProt P35372); test: SAR Analysis of Antagonists of the MOR Receptor using an Image-Based Assay - Set 3. [Related pubchem assays (depositor defined):AID1777, AID1785, AID1786, AID1966, AID2133, AID2136, AID2284, AID2285, AID2420]; type: functional
# Mu-type opioid receptor, sequence (P35372 whole entry): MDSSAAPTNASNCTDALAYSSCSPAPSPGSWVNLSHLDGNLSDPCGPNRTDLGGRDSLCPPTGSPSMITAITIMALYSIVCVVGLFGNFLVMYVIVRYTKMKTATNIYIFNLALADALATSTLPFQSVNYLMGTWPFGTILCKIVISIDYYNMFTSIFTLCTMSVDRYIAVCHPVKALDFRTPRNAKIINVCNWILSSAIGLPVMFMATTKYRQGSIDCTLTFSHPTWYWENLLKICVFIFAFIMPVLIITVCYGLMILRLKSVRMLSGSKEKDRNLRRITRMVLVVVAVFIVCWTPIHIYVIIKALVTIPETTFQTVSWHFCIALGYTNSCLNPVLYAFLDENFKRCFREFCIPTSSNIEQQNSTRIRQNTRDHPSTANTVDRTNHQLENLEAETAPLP
# [15] = biological target: T2, Kappa-type opioid receptor (Homo sapiens, UniProt P41145); test: SAR analysis of small molecule antagonists of the kappa opioid receptor via a luminescent beta-arrestin assay - Set 6. [Related pubchem assays (depositor defined):AID1777, AID1778, AID1785, AID1786, AID1966, AID2133, AID2136, AID2285]; type: functional
# T2 sequence (P41145 whole entry): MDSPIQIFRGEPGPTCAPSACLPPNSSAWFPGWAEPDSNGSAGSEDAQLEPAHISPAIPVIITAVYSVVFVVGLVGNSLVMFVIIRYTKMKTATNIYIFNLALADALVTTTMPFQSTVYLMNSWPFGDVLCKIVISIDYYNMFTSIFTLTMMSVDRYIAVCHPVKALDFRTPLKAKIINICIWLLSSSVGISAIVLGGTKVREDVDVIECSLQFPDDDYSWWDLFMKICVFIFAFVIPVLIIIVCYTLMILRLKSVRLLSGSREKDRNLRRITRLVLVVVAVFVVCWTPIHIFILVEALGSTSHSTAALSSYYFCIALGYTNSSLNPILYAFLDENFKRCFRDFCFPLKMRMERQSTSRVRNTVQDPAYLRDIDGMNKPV
# [16] = biological target: T2, Kappa-type opioid receptor; test: SAR analysis of small molecule antagonists of the kappa opioid receptor via a luminescent beta-arrestin assay - Set 4. [Related pubchem assays (depositor defined):AID1777, AID1778, AID1785, AID1786, AID1966, AID2133, AID2136, AID2285]; type: functional
# [17] = biological target: Delta-type opioid receptor (Homo sapiens, UniProt P41143); test: SAR Analysis of Antagonists of the DOR Receptor using an Image-Based Assay - Set 3. [Related pubchem assays (depositor defined):AID1777, AID1785]; type: functional;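 note: U2OS cells expressing DOR1 and beta-arrestin GFP stimulated with 100 nM SNC80; imaging of GFP-tagged beta-arrestin moving into spots after receptor activation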
# Delta-type opioid receptor, sequence (P41143 whole entry): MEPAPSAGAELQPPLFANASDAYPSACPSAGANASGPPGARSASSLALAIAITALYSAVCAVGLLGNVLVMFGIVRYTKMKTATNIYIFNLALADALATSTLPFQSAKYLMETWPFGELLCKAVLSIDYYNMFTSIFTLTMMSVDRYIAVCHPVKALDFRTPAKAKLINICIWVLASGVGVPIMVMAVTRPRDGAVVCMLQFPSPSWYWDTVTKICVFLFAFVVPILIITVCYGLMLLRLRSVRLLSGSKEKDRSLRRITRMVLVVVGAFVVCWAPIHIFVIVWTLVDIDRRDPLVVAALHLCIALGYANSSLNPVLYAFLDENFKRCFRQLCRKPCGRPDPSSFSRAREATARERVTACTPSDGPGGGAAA
# [18] = biological target: T2, Kappa-type opioid receptor; test: SAR analysis of Antagonists of the Kappa Opioid Receptor (KOR) using an Image-Based Assay - Set 4. [Related pubchem assays (depositor defined):AID1777, AID1785]; type: functional
# [19] = biological target: Melanin-concentrating hormone receptor 1 (Homo sapiens, UniProt Q99705); test: Late-stage fluorescence-based counterscreen for antagonists of the G-protein coupled receptor 7 (GPR7): cell-based dose response assay to identify antagonists of the melanin-concentrating hormone receptor 1 (MCHR1). [Related pubchem assays (depositor defined):AID1861, AID1880, AID1952, AID2148, AID2251, AID2257, AID485339]; type: functional;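 note: stimulated with 30 nM MCH peptide agonist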
# Melanin-concentrating hormone receptor 1, sequence (Q99705 whole entry): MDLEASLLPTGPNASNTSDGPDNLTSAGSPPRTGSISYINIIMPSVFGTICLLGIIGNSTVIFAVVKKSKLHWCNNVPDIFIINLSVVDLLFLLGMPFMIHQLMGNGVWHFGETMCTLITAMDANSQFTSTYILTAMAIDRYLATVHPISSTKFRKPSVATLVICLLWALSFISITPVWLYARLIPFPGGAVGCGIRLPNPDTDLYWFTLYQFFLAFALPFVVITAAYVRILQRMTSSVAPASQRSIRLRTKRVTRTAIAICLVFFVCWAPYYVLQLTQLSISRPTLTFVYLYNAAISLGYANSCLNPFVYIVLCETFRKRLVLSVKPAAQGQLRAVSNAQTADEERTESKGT
# [20] = biological target: T3, Neuropeptides B/W receptor type 1 (Homo sapiens, UniProt P48145); test: human NPBW1 receptor blockade, IC50 – cell-based, fluorescence, dose response, late-stage follow-up (AID 463251); type: functional
# T3 sequence (P48145 whole entry): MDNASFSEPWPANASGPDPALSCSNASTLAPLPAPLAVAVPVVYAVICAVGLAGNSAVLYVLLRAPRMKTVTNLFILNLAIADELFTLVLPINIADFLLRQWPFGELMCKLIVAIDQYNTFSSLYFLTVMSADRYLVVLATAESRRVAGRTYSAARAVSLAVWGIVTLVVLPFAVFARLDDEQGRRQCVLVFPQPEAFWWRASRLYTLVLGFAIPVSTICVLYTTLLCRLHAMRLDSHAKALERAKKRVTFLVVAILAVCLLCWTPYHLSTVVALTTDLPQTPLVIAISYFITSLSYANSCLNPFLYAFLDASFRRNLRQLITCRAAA
# Caspase-3 = biological target: T4, Caspase-3 (Homo sapiens, UniProt P42574); test: activators of human procaspase-3 D3A mutant – biochemical, absorbance, PC-3 D3A mutant, counter-screen for dual procaspase-3/7 activator project, dose response (AID 504328)
# T4 sequence (P42574 whole entry): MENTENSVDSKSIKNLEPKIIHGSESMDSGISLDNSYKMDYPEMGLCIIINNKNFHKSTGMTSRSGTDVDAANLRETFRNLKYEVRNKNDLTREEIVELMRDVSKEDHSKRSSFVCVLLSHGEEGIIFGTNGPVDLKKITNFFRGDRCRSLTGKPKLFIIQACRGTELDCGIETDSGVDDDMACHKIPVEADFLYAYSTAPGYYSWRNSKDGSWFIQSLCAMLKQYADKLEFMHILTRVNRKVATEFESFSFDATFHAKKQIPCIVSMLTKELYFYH
# Caspase-7 = Caspase-7 (Homo sapiens, UniProt P55210); test: potency of procaspase-7 enzyme activation – biochemical, absorbance, human, dual procaspase-3/-7 activator project, dose response (AID 504330)
smiles,measurement,setting,value
CSc1ccc(NC(=O)Nc2cccn(Cc3ccccc3)c2=O)cc1,IC50,[1],> 100 µM (active)
same,CC50,[2],> 40 µM (active)
same,CC50,[3],> 40 µM (active)
same,CC50,[4],> 20 µM (active)
same,IC50,cells [5],11.4 µM (active)
N#C/C(=C\c1ccc(N2CCCCC2)o1)C(N)=O,IC50,[6],6.55 µM (active)
same,IC50,[7],> 55.7 µM (not active)
same,IC50,Insulin-degrading enzyme,8.72 µM (active)
same,EC50,[8],> 100 µM (active)
CC(Sc1nc(-c2ccccc2)cc(C(F)(F)F)n1)C(=O)N1CCCC1 (configuration not stated),IC50,MDA-MB-435,> 10 µM (inactive)
same,IC50,cells [9],> 10 µM (inactive)
same,EC50,[10],0.243 µM (active)
Cc1cc(=O)oc2cc(OCC3CC(c4ccccc4Cl)=NO3)ccc12 (configuration not stated),EC50,[11],11.7 µM (active)
same,EC50,H4,> 120 µM (not active)
same,IC50,J774.A1,> 25 µM (inactive)
same,IC50,[12],> 80 µM (inactive)
COc1cccc(/C=C2/NC(=O)N(CC(=O)Nc3ccc(C)cc3)C2=O)c1OCc1cccc(C(=O)O)c1,IC50,[13],10.6 µM (active)
same,IC50,[14],> 100 µM (inactive)
CC(C)N(CCNC(=O)c1ccc(CNS(=O)(=O)c2ccc(C3CCCCC3)cc2)cc1)Cc1ccccc1,IC50,Mu-type opioid receptor,2.47 µM (active)
same,IC50,[15],> 20 µM (inactive)
same,IC50,[16],> 20 µM (inactive)
same,IC50,[17],> 32 µM (inactive)
same,IC50,[18],1.22 µM (active)
Cc1ccc(-n2ncc(Cl)c(Oc3ccc(F)cc3C)c2=O)cc1,IC50,[19],17 µM (inactive)
same,IC50,[20],10 µM (active)
COc1ccc(C(=O)N/N=C/c2ccc3cccc(OCc4ccccc4)c3n2)cc1,EC50,Caspase-3,> 85.3 µM (inactive)
same,EC50,Caspase-7,> 85.3 µM (inactive)

# — ChEMBL document CHEMBL1201862, “PubChem BioAssay data set” (2004)
